Reference: US7671058B2, “N-(3,4-disubstituted phenyl) salicylamide derivatives” (Institute of Medicinal Molecular Design, Inc., priority 2006, dated 2010)
Where two headings read alike, the source gives them in different places.

Tests used:
NF-κB = NF-κB inhibition test: pNFκB-Luc luciferase reporter in U2-OS cells stimulated with human TNF α; format: cell-based; conditions: human TNF α 10 ng/mL; for IC50: from inhibition rates at 1, 0.1, 0.01 and 0.001 μM, read-out: IC50 against activation of NF-κB
Description: (1) Transfection to U2-OS Cells and Inhibition Test of Activation
U2-OS cells were seeded at 2×10^4 cells/well in 96-well culture plate, and transfection was carried out using FuGENE 6 Transfection Reagent (Roche Diagnostics GmbH). The procedures of the transfection are shown below.
11 μg of reporter plasmid (pNFκB-Luc; Stratagene Corporation) and 1.1 μg of pCMV β (CLONTECH Laboratories, Inc.) were mixed in 1.1 mL of OPTI-MEM I medium (GIBCO BRL) (solution (A)).
[…] of FuGENE 6 Transfection Reagent was mixed in 1.1 mL of OPTI-MEM I medium (solution (B)).
(§1) The above solution (A) and solution (B) were mixed, let them stand for 15 minutes at room temperature, then, 8.8 mL of OPTI-MEM I medium was added and diluted.
To this transfection solution, U2-OS cell suspension (11 mL) in McCoy's 5A medium (GIBCO BRL) containing 10% Fetal Bovine Serum (FBS; GIBCO BRL) at […] was added and well mixed.
(§2) 0.2 mL of the above solution was dispensed into each well of 96-well culture plates, and incubated for 24 hours (37° C., 5% CO2).
After removal of 50 μL of medium from each well, 50 μL of McCoy's 5A medium (serum-free) containing compound of the present application was added to a final concentration of 0.01˜2 μM (0.001, 0.01, 0.1, 0.5, 1 or 2 μM), and the plates were incubated for 2 hours (37° C., 5% CO2).
10 μL of the McCoy's 5A medium (serum-free) containing human TNF α (PEPROTECH EC Ltd.) was added to each well to achieve a final concentration of 10 ng/mL, and incubated for 8 hours (37° C., 5% CO2).
(§3) Medium was completely removed and plates were preserved at −80° C. until measurements.
(§4) Cell lysates were prepared by adding 40 μL of Passive Lysis Buffer (Promega Corporation) to each well.
(§5) 10 μL of each lysate was transferred to 96-well white plates. 50 μL of PicaGene L.T.2.0 (TOYO INK MFG. CO., LTD.) was added to each well, then, luminescence was measured after leaving for 10 minutes at room temperature.
(§6) 10 μL of each lysate was transferred to 96-well black plates. 100 μL of Z Buffer (preparation method will be explained later) was added to each well, and fluorescence was measured immediately.
(§7) 10 μL of each lysate was transferred to 96-well clear plates. 200 μL of protein assay reagent prepared from the BCA Protein Assay Kit (Pierce Biotechnology, Inc.) was added to each well, and, absorbance was measured after incubation for 30 minutes at 37° C.
(§8) For measurements of luminescence, fluorescence, and absorbance, microplate reader GENios (TECAN G.M.B.H.) was used.
(3) Calculation of Inhibition Rate
Luminescence values that show the degree of activation by TNF α stimulation were normalized by β-gal values that show transfection efficiency. Using the normalized values, the following calculation was carried out using the luminescence values that increased by TNF α stimulation. Inhibition Rate(%)=[…] E: In the presence of the compound of the present application, increased luminescence values by TNF α stimulation C: Without the presence of the compound of the present application, increased luminescence values by TNF α, stimulation
The values of protein assay by BCA reagent were used for a simple assessment of cytotoxicity, and not used for the calculation of inhibition rates.
NF-κB Inhibition Rates are shown below. The values in parentheses in the table represent the concentration of the compound of the present application.
NF-κB inhibition rates where the concentrations of the compound of the present application were 1, 0.1, 0.01 and 0.001 μM were calculated, and the 50% inhibitory concentrations (IC50) of the compounds of the present application against activation of NF-κB were evaluated.

STAT6 = STAT6 inhibition test: (GLS)x8/pTA-Luc luciferase reporter in U2-OS cells stimulated with human IL-4; format: cell-based; conditions: human IL-4 40 ng/mL; for IC50: from inhibition rates at 1, 0.1, 0.01 and 0.001 μM, read-out: IC50 against activation of STAT6
Source text: (1) Construction of a STAT6 Reporter Plasmid
The Oligonucleotides (SEQ ID: 1, 2) containing two copies of STAT6 binding sequences (refer to J. Biol. Chem., vol. 276, No. 9, pp. 6675-6688 (2001).) were synthesized, and integrated into the enhancer region of the reporter plasmid pTA-Luc Vector (CLONTECH Laboratories, Inc.) at the restriction enzyme BgIII site.
When the oligonucleotide is integrated in positive direction into the plasmid, the upstream BglII site is not reconstructed. Therefore, STAT6 binding sequences can be increased by repeating integration of the oligonucleotide at the restriction enzyme BglII site.
In the present test, a plasmid including eight integrated STAT6 binding sequences was constructed and provided for the reporter assay as (GLS)x8/pTA-Luc. Confirmation of the sequences was carried out using an automated fluorescence sequencer (Model 310 (Applied Biosystems)).
(2) Transfection into U2-OS Cells and Inhibition Test for STAT6 Activation
U2-OS cells were seeded to at 2×10^4 cells/well in 96-well culture plates, and transfection was carried out using FuGENE 6 Transfection Reagent (Roche Diagnostics GmbH). The procedures of the transfection are shown below.
11 μg of reporter plasmid ((GLS)x8/pTA-Luc) and 1.1 μg of pCMV β (CLONTECH Laboratories, Inc.) were mixed in 1.1 mL of OPTI-MEM I medium (GIBCO BRL) (solution (A)).
33 μL of FuGENE 6 Transfection Reagent was mixed in 1.1 mL of OPTI-MEM I medium (solution (B)).
as §1
To this transfection solution, U2-OS cell suspension (11 mL) in McCoy's 5A medium (GIBCO BRL) containing 10% Fetal Bovine Serum (FBS; GIBCO BRL) at 2×10^5 cells/mL was added and well mixed.
as §2
After removal of 50 μL of medium from each well, 50 μL of McCoy's 5A medium (serum-free) containing compound, of the present application was added to a final concentration of 0.01˜2 μM (0.001, 0.01, 0.1, 0.5, 1 or 2 μM), and the plates were incubated for 2 hours (37° C., 5% CO2).
10 μL of the McCoy's 5A medium (serum-free) containing human IL-4 (R&D Systems, Inc) was added to each well to achieve a final concentration of 40 ng/mL, and incubated for 8 hours (37° C., 5% CO2).
as §3, §4, §5, §6, §7, §8
(4) Calculation of Inhibition Rate
Luminescence values that show the degree of activation by IL-4 stimulation were normalized by β-gal values that show transfection efficiency. Using the normalized values, the following calculations were carried out using the luminescence values increased by IL-4 stimulation. Inhibition Rate(%)=[…] E: In the presence of the compound of the present application, increased luminescence value by IL-4 stimulation C: Without the presence of the compound of the present application, increased luminescence value by IL-4 stimulation […]

SMILES	Inhibition Rate of NF-κB (%) (NF-κB; compound 2 μM, 8 hours)	Inhibition Rate of STAT6 (%) (STAT6; compound 2 μM, 8 hours)	also measured
Cc1cc(NC(=O)c2cc(Cl)ccc2O)ccc1N1CCN(C)CC1.Cl [compound 18]	67 (2 μM) %	79 (2 μM) %	IC50 (NF-κB): 0.147 µM; IC50 (STAT6): 0.0919 µM
CN1CCN(c2ccc(NC(=O)c3cc(C(F)(F)F)ccc3O)cc2F)CC1.Cl [compound 62]	89 (2 μM) %	96 (2 μM) %	
O=C(Nc1ccc(OC2CCCCC2)c(F)c1)c1cc(Cl)ccc1O [compound 10]	45 (2 μM) %	76 (2 μM) %	
Cc1cc(NC(=O)c2cc(Cl)ccc2O)ccc1N1CCNCC1 [compound 23]	11 (2 μM) %	24 (2 μM) %	
CN1CCN(c2ccc(NC(=O)c3ccccc3O)cc2F)CC1.Cl [compound 30]		19 (2 μM) %	
CN(C)C1CCN(c2ccc(NC(=O)c3cc(Cl)ccc3O)cc2F)CC1 [Compound 78]			inhibition at 2 µM (NF-κB; U2OS, compound 2 μM, 8 hours, read-out: Inhibition Rate of NF-κB (%)): 49%; inhibition at 2 µM (STAT6; U2OS, compound 2 μM, 8 hours, read-out: Inhibition Rate of STAT6 (%)): 46%
CN1CCN(c2ccc(NC(=O)c3ccc(F)cc3O)cc2F)CC1.Cl [compound 58]	59 (2 μM) %	70 (2 μM) %	
O=C(Nc1cc(C(F)(F)F)cc(C(F)(F)F)c1)c1cc(Cl)ccc1O [N-[3,5-Bis(trifluoromethyl)phenyl]-5-chloro-2-hydroxybenzamide, reference compound]			IC50 (NF-κB; U2OS): 0.385 µM
Cl.NCC1CCCN(c2ccc(NC(=O)c3cc(Cl)ccc3O)cc2F)C1 (centres unmarked) [compound 54]	84 (2 μM) %	89 (2 μM) %	IC50 (NF-κB): 0.0435 µM; IC50 (STAT6): 0.015 µM
Cl.NC1CCN(c2ccc(NC(=O)c3cc(Br)ccc3O)cc2F)CC1 [compound 67]	93 (2 μM) %	94 (2 μM) %	IC50 (NF-κB): 0.016 µM; IC50 (STAT6): 0.00532 µM
O=C(Nc1ccc(OC2CCCCC2)c(C(F)(F)F)c1)c1cc(Cl)ccc1O [compound 5]	63 (2 μM) %	88 (2 μM) %	
Cl.NC1CCN(c2ccc(NC(=O)c3cc(Cl)ccc3O)cc2Cl)CC1 [compound 75]	78 (2 μM) %	76 (2 μM) %	IC50 (NF-κB): 0.0358 µM; IC50 (STAT6): 0.076 µM
CC1CCC(C)N1c1ccc(NC(=O)c2cc(Cl)ccc2O)cc1F (centres unmarked) [compound 84]	61 (2 μM) %	83 (2 μM) %	
CN1CCCN(c2ccc(NC(=O)c3ccc(Cl)cc3O)cc2F)CC1 [compound 77]	89 (2 μM) %	90 (2 μM) %	IC50 (NF-κB): 0.00844 µM; IC50 (STAT6): 0.00729 µM
O=C(Nc1ccc(N2CCC(O)CC2)c(F)c1)c1cc(Cl)ccc1O [compound 43]	32 (2 μM) %	46 (2 μM) %	
O=C(Nc1ccc(N2CCN(C(=O)CCN3CCCCC3)CC2)c(F)c1)c1cc(Cl)ccc1O [compound 35]	24 (2 μM) %	26 (2 μM) %	
O=C(Nc1ccc(N2CCCCCC2)c(F)c1)c1cc(Cl)ccc1O [compound 7]	46 (2 μM) %	84 (2 μM) %	
CN1CCCC(COc2ccc(NC(=O)c3cc(Cl)ccc3O)cc2F)C1 (centres unmarked) [compound 50]	45 (2 μM) %	43 (2 μM) %	
Cl.O=C(Nc1ccc(N2CCCNCC2)c(C(F)(F)F)c1)c1cc(Cl)ccc1O [compound 76]	94 (2 μM) %	95 (2 μM) %	IC50 (NF-κB): 0.02 µM; IC50 (STAT6): 0.0329 µM
CN1CCN(c2ccc(NC(=O)c3cc(Cl)ccc3O)cc2F)CC1 [compound 12]	91 (2 μM) %	94 (2 μM) %	IC50 (NF-κB): 0.0252 µM; IC50 (STAT6): 0.015 µM
CC1CCCN1c1ccc(NC(=O)c2cc(Cl)ccc2O)cc1F (centres unmarked) [compound 82]		38 (2 μM) %	
Cl.O=C(Nc1ccc(OC2CCCNC2)c(F)c1)c1cc(Cl)ccc1O (centres unmarked) [compound 56]		19 (2 μM) %	
CC1CN(c2ccc(NC(=O)c3cc(Cl)ccc3O)cc2F)CCN1.Cl (centres unmarked) [compound 73]		20 (2 μM) %	
Cc1cc(NC(=O)c2cc(Cl)ccc2O)ccc1N1CCCCC1 [compound 9]		53 (2 μM) %	
